Experimental data from PubChem BioAssay (NCI).
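Results reflect a 48-hour exposure of cells in 96-well plates to compound at five concentrations. Abbreviation: GI50, concentration required for 50% inhibition of growth. TGI marks complete inhibition of growth.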

Legend:
Experiment in all cases: NCI anticancer screen, dose series, 48 h
A498 renal = test system: A498 renal
A549 NSCLC = test system: A549 NSCLC
BT-549 breast = test system: BT-549 breast
CAKI-1 renal = test system: CAKI-1 renal
CCRF-CEM leukemia = test system: CCRF-CEM leukemia
COLO 205 colon = test system: COLO 205 colon
DU-145 prostate = test system: DU-145 prostate
EKVX NSCLC = test system: EKVX NSCLC
HCC-2998 colon = test system: HCC-2998 colon
HCT-116 colon = test system: HCT-116 colon
HL-60(TB) leukemia = test system: HL-60(TB) leukemia
HOP-62 NSCLC = test system: HOP-62 NSCLC
HS 578T breast = test system: HS 578T breast
HT29 colon = test system: HT29 colon
K-562 leukemia = test system: K-562 leukemia
MALME-3M melanoma = test system: MALME-3M melanoma
MCF7 breast = test system: MCF7 breast
MDA-MB-231 breast = test system: MDA-MB-231 breast
MDA-MB-435 = test system: MDA-MB-435
MOLT-4 leukemia = test system: MOLT-4 leukemia
NCI-H460 lung = test system: NCI-H460 lung
NCI-H522 lung = test system: NCI-H522 lung
NCI/ADR-RES ovarian = test system: NCI/ADR-RES ovarian
OVCAR-4 ovarian = test system: OVCAR-4 ovarian
OVCAR-5 ovarian = test system: OVCAR-5 ovarian
OVCAR-8 ovarian = test system: OVCAR-8 ovarian
RPMI-8226 leukemia = test system: RPMI-8226 leukemia
SF-268 CNS = test system: SF-268 CNS
SF-295 CNS = test system: SF-295 CNS
SK-MEL-2 melanoma = test system: SK-MEL-2 melanoma
SK-MEL-28 melanoma = test system: SK-MEL-28 melanoma
SK-MEL-5 melanoma = test system: SK-MEL-5 melanoma
SK-OV-3 ovarian = test system: SK-OV-3 ovarian
SN12C renal = test system: SN12C renal
SNB-75 CNS = test system: SNB-75 CNS
SR leukemia = test system: SR leukemia
SW-620 colon = test system: SW-620 colon
T-47D breast = test system: T-47D breast
TK-10 renal = test system: TK-10 renal
UACC-257 melanoma = test system: UACC-257 melanoma
UACC-62 melanoma = test system: UACC-62 melanoma
786-0 renal = test system: 786-0 renal
ACHN renal = test system: ACHN renal
HCT-15 colon = test system: HCT-15 colon
HOP-92 NSCLC = test system: HOP-92 NSCLC
IGROV1 ovarian = test system: IGROV1 ovarian
KM12 colon = test system: KM12 colon
LOX IMVI melanoma = test system: LOX IMVI melanoma
M14 melanoma = test system: M14 melanoma
NCI-H226 lung = test system: NCI-H226 lung
NCI-H23 lung = test system: NCI-H23 lung
PC-3 prostate = test system: PC-3 prostate
RXF 393 renal = test system: RXF 393 renal
SF-539 CNS = test system: SF-539 CNS
SNB-19 CNS = test system: SNB-19 CNS
U251 CNS = test system: U251 CNS
UO-31 renal = test system: UO-31 renal

C#Cc1ccc(NC(=O)c2ccc(/C=C/C(=O)c3nccn3C)cc2)c(F)c1
GI50 (A498 renal): 2500 nM
TGI (A498 renal): > 50000 nM
GI50 (A549 NSCLC): 1510 nM
TGI (A549 NSCLC): > 50000 nM
GI50 (BT-549 breast): 823 nM
TGI (BT-549 breast): 2250 nM
GI50 (CAKI-1 renal): 2270 nM
TGI (CAKI-1 renal): > 50000 nM
GI50 (CCRF-CEM leukemia): 1080 nM
TGI (CCRF-CEM leukemia): 5850 nM
GI50 (COLO 205 colon): 4020 nM
TGI (COLO 205 colon): > 50000 nM
GI50 (DU-145 prostate): 1810 nM
TGI (DU-145 prostate): 45600 nM
GI50 (EKVX NSCLC): 1410 nM
TGI (EKVX NSCLC): > 50000 nM
GI50 (HCC-2998 colon): 1740 nM
TGI (HCC-2998 colon): > 50000 nM
GI50 (HCT-116 colon): 876 nM
TGI (HCT-116 colon): 1940 nM
GI50 (HL-60(TB) leukemia): 844 nM
TGI (HL-60(TB) leukemia): 2430 nM
GI50 (HOP-62 NSCLC): 1540 nM
TGI (HOP-62 NSCLC): > 50000 nM
GI50 (HS 578T breast): 1880 nM
TGI (HS 578T breast): > 50000 nM
GI50 (HT29 colon): 1490 nM
TGI (HT29 colon): > 50000 nM
GI50 (K-562 leukemia): 853 nM
TGI (K-562 leukemia): > 50000 nM
GI50 (MALME-3M melanoma): 3760 nM
TGI (MALME-3M melanoma): > 50000 nM
GI50 (MCF7 breast): 1290 nM
TGI (MCF7 breast): > 50000 nM
GI50 (MDA-MB-231 breast): 2140 nM
TGI (MDA-MB-231 breast): 22400 nM
GI50 (MDA-MB-435): 1860 nM
TGI (MDA-MB-435): > 50000 nM
GI50 (MOLT-4 leukemia): 1370 nM
TGI (MOLT-4 leukemia): 5420 nM
GI50 (NCI-H460 lung): 1120 nM
TGI (NCI-H460 lung): 2680 nM
GI50 (NCI-H522 lung): 2160 nM
TGI (NCI-H522 lung): > 50000 nM
GI50 (NCI/ADR-RES ovarian): 1500 nM
TGI (NCI/ADR-RES ovarian): > 50000 nM
GI50 (OVCAR-4 ovarian): 2650 nM
TGI (OVCAR-4 ovarian): > 50000 nM
GI50 (OVCAR-5 ovarian): 1770 nM
TGI (OVCAR-5 ovarian): > 50000 nM
GI50 (OVCAR-8 ovarian): 1910 nM
TGI (OVCAR-8 ovarian): > 50000 nM
GI50 (RPMI-8226 leukemia): 522 nM
TGI (RPMI-8226 leukemia): 2140 nM
GI50 (SF-268 CNS): 1630 nM
TGI (SF-268 CNS): > 50000 nM
GI50 (SF-295 CNS): 1740 nM
TGI (SF-295 CNS): 16800 nM
GI50 (SK-MEL-2 melanoma): > 50000 nM
TGI (SK-MEL-2 melanoma): > 50000 nM
GI50 (SK-MEL-28 melanoma): > 50000 nM
TGI (SK-MEL-28 melanoma): > 50000 nM
GI50 (SK-MEL-5 melanoma): 2040 nM
TGI (SK-MEL-5 melanoma): > 50000 nM
GI50 (SK-OV-3 ovarian): 2530 nM
TGI (SK-OV-3 ovarian): > 50000 nM
GI50 (SN12C renal): 1440 nM
TGI (SN12C renal): > 50000 nM
GI50 (SNB-75 CNS): 1000 nM
TGI (SNB-75 CNS): 4340 nM
GI50 (SR leukemia): 545 nM
TGI (SR leukemia): 4440 nM
GI50 (SW-620 colon): 1330 nM
TGI (SW-620 colon): > 50000 nM
GI50 (T-47D breast): 1840 nM
TGI (T-47D breast): > 50000 nM
GI50 (TK-10 renal): > 50000 nM
TGI (TK-10 renal): > 50000 nM
GI50 (UACC-257 melanoma): > 50000 nM
TGI (UACC-257 melanoma): > 50000 nM
GI50 (UACC-62 melanoma): 1930 nM
TGI (UACC-62 melanoma): > 50000 nM

Oc1ccc(CSc2nnc(-c3ccc(Cl)cc3)n2-c2ccccc2)c2cccnc12
GI50 (786-0 renal): 1170 nM
TGI (786-0 renal): > 100000 nM
GI50 (A498 renal): 3890 nM
TGI (A498 renal): > 100000 nM
GI50 (A549 NSCLC): 2070 nM
TGI (A549 NSCLC): > 100000 nM
GI50 (ACHN renal): 532 nM
TGI (ACHN renal): > 100000 nM
GI50 (BT-549 breast): 731 nM
TGI (BT-549 breast): > 100000 nM
GI50 (CAKI-1 renal): 1270 nM
TGI (CAKI-1 renal): > 100000 nM
GI50 (CCRF-CEM leukemia): 488 nM
TGI (CCRF-CEM leukemia): > 100000 nM
GI50 (COLO 205 colon): > 100000 nM
TGI (COLO 205 colon): > 100000 nM
GI50 (DU-145 prostate): 762 nM
TGI (DU-145 prostate): > 100000 nM
GI50 (EKVX NSCLC): 1380 nM
TGI (EKVX NSCLC): > 100000 nM
GI50 (HCC-2998 colon): 733 nM
TGI (HCC-2998 colon): > 100000 nM
GI50 (HCT-116 colon): 375 nM
TGI (HCT-116 colon): > 100000 nM
GI50 (HCT-15 colon): 162 nM
TGI (HCT-15 colon): > 100000 nM
GI50 (HL-60(TB) leukemia): 584 nM
TGI (HL-60(TB) leukemia): > 100000 nM
GI50 (HOP-62 NSCLC): 544 nM
TGI (HOP-62 NSCLC): > 100000 nM
GI50 (HOP-92 NSCLC): 351 nM
TGI (HOP-92 NSCLC): 6340 nM
GI50 (HS 578T breast): 364 nM
TGI (HS 578T breast): > 23600 nM
GI50 (HT29 colon): > 100000 nM
TGI (HT29 colon): > 100000 nM
GI50 (IGROV1 ovarian): 954 nM
TGI (IGROV1 ovarian): > 100000 nM
GI50 (K-562 leukemia): 357 nM
TGI (K-562 leukemia): > 100000 nM
GI50 (KM12 colon): 877 nM
TGI (KM12 colon): > 100000 nM
GI50 (LOX IMVI melanoma): 425 nM
TGI (LOX IMVI melanoma): > 100000 nM
GI50 (M14 melanoma): 510 nM
TGI (M14 melanoma): > 100000 nM
GI50 (MALME-3M melanoma): 2390 nM
TGI (MALME-3M melanoma): > 100000 nM
GI50 (MCF7 breast): 410 nM
TGI (MCF7 breast): > 100000 nM
GI50 (MDA-MB-231 breast): 5840 nM
TGI (MDA-MB-231 breast): > 100000 nM
GI50 (MDA-MB-435): 517 nM
TGI (MDA-MB-435): > 100000 nM
GI50 (MOLT-4 leukemia): 592 nM
TGI (MOLT-4 leukemia): > 100000 nM
GI50 (NCI-H226 lung): 4980 nM
TGI (NCI-H226 lung): > 100000 nM
GI50 (NCI-H23 lung): 697 nM
TGI (NCI-H23 lung): > 100000 nM
GI50 (NCI-H460 lung): 368 nM
TGI (NCI-H460 lung): > 100000 nM
GI50 (NCI-H522 lung): 1910 nM
TGI (NCI-H522 lung): > 100000 nM
GI50 (NCI/ADR-RES ovarian): 211 nM
TGI (NCI/ADR-RES ovarian): > 100000 nM
GI50 (OVCAR-4 ovarian): 2070 nM
TGI (OVCAR-4 ovarian): > 100000 nM
GI50 (OVCAR-5 ovarian): 5730 nM
TGI (OVCAR-5 ovarian): > 100000 nM
GI50 (OVCAR-8 ovarian): 516 nM
TGI (OVCAR-8 ovarian): > 100000 nM
GI50 (PC-3 prostate): 636 nM
TGI (PC-3 prostate): > 100000 nM
GI50 (RPMI-8226 leukemia): 456 nM
TGI (RPMI-8226 leukemia): > 100000 nM
GI50 (RXF 393 renal): 1790 nM
TGI (RXF 393 renal): > 100000 nM
GI50 (SF-268 CNS): 633 nM
TGI (SF-268 CNS): > 100000 nM
GI50 (SF-295 CNS): 732 nM
TGI (SF-295 CNS): > 100000 nM
GI50 (SF-539 CNS): 444 nM
TGI (SF-539 CNS): > 100000 nM
GI50 (SK-MEL-2 melanoma): 1340 nM
TGI (SK-MEL-2 melanoma): > 72100 nM
GI50 (SK-MEL-28 melanoma): 1150 nM
TGI (SK-MEL-28 melanoma): > 100000 nM
GI50 (SK-MEL-5 melanoma): 2220 nM
TGI (SK-MEL-5 melanoma): > 100000 nM
GI50 (SK-OV-3 ovarian): 2340 nM
TGI (SK-OV-3 ovarian): > 100000 nM
GI50 (SN12C renal): 908 nM
TGI (SN12C renal): > 100000 nM
GI50 (SNB-19 CNS): 434 nM
TGI (SNB-19 CNS): > 100000 nM
GI50 (SNB-75 CNS): 802 nM
TGI (SNB-75 CNS): > 100000 nM
GI50 (SR leukemia): 264 nM
TGI (SR leukemia): > 100000 nM
GI50 (SW-620 colon): 436 nM
TGI (SW-620 colon): > 100000 nM
GI50 (T-47D breast): 1920 nM
TGI (T-47D breast): > 100000 nM
GI50 (TK-10 renal): 756 nM
TGI (TK-10 renal): > 100000 nM
GI50 (U251 CNS): 327 nM
TGI (U251 CNS): > 22100 nM
GI50 (UACC-257 melanoma): 2980 nM
TGI (UACC-257 melanoma): > 100000 nM
GI50 (UACC-62 melanoma): 1490 nM
TGI (UACC-62 melanoma): > 100000 nM
GI50 (UO-31 renal): 273 nM
TGI (UO-31 renal): > 100000 nM
